Experimental data taken from patent US6462017B1, “Method of reducing side effects of chemotherapy in cancer patients” (SciClone Pharmaceuticals, Inc., priority 2000, dated 2002).
Where no end group is shown, it is not given here.

Assays:
VIP receptor = conditions: in vitro; cited from earlier work
[1] = system: cancer patients (lung, gastric, breast cancer) receiving chemotherapy; assay: Quality of life scored scale, randomized crossover open label trial of chemotherapy cycles with and without Tα1; assay type: in vivo, humans
Procedure: (§1) Method: A randomized crossover open label trial was performed. A total of sixty patients, twenty with lung cancer, twenty with gastric cancer and twenty with breast cancer were studied during two complete cycles of chemotherapy. All patients were randomized into two groups. In group 1, patients received chemotherapy with thymosin α1 in the first cycle, and without thymosin α1 in the second cycle. While patients in group 2 received chemotherapy without thymosin α1 in the first cycle, and with thymosin α1 in the second cycle. The patients were treated as follows:
(§2) Twenty lung cancer patients were treated with 100 mg of Etoposide IV on days 1-5 and 40 mg of Cisplatin I.V. on days 1-3 in a 21 day cycle.
(§3) Twenty gastric cancer patients were treated with 100 mg of Etoposide IV on days 1-5, 30 mg/m^2 Calcium Leucovorin I.V. on days 1-5 and 500 mg/m^2 5-Fluorouricil (5-FU) I.V. on days 1-5.
(§4) Twenty breast cancer patients were treated with 5-Fluorouricil 500 mg/m^2, Adriamycin I.V. 30 mg/m^2 I.V. on day 1 and cyclophosphamide 500 mg/m^2 I.V. on day 1.
(§5) A mild anti-emetic consisting of 20 mg metoclopamide, I.M. and 5 mg Dexamethasone I.V. were given to all patients on days 1-5. All subjects on thymosin received six injections of 1.6 mg s.c. Tα1 on each of the four days immediately preceding the chemotherapy and on days two and four following chemotherapy. All patients who have completed the two cycles of chemotherapy, then were reallocated into two cohorts, A and B. Cohort A are patients with Tα1, and Cohort B are patients without Tα1.
Analysis: Quality of life was analyzed using a scored scale for (1) loss of appetite, (2) loss of sleep, (3) fatigue, (4) reduction in daily activity, (5) decline in overall feeling, (6) depression and (7) nausea and vomiting. Maximum total score was 35 points.

cancer patients = assay: Side effects of thymosin α1 administration; assay type: in vivo, humans; conditions: administration in conjunction with antineoplastics
[2] = system: cancer patients (lung, gastric, breast cancer) receiving chemotherapy; assay: Nausea and vomiting classified according to WHO criteria, same trial; assay type: in vivo, humans; conditions: Cohort A with Tα1, n 54, P < 0.0005
Procedure: as §1, §2, §3, §4, §5

thymosin α1 (SDAAVDTSSEITTKDLKEKKEVVEEAEN; not fully specified; ends and bridges not checked; UniProt P06454 2-29, looked up) [Tα1, acidic polypeptide isolated from thymosin fraction 5, an immunomodulator that acts primarily by enhancing T-cell function]
VIP receptor binding (VIP receptor): has a VIP receptor binding effect | Effect on quality of life scores ([1]; addition of Tα1 to chemotherapy cycles compared with cycles without Tα1): significantly increases the quality of life scores | Fatigue, quality of life score ([1]; cycles with Tα1 (1.6 mg s.c., six injections) vs. cycles without Tα1 3.70, p = 0.0001): 4.05 vs. 3.70 p = 0.0001 | Depression, quality of life score ([1]; cycles with Tα1 (1.6 mg s.c., six injections) vs. cycles without Tα1 3.72, p = 0.003): 4.01 vs. 3.72 p = 0.003 | Reduction in Daily Activity, quality of life score ([1]; cycles with Tα1 (1.6 mg s.c., six injections) vs. cycles without Tα1 3.84, p = 0.0001): 4.12 vs. 3.84 p = 0.0001 | Nausea and Vomiting, quality of life score ([1]; cycles with Tα1 (1.6 mg s.c., six injections) vs. cycles without Tα1 3.93, p = 0.001): 4.29 vs. 3.93 p = 0.001 | Decline in Overall Feeling, quality of life score ([1]; cycles with Tα1 (1.6 mg s.c., six injections) vs. cycles without Tα1 3.94, p = 0.0001): 4.32 vs. 3.94 p = 0.0001 | Loss of Appetite, quality of life score ([1]; cycles with Tα1 (1.6 mg s.c., six injections) vs. cycles without Tα1 3.99, p = 0.0001): 4.33 vs. 3.99 p = 0.0001 | Loss of Sleep, quality of life score ([1]; cycles with Tα1 (1.6 mg s.c., six injections) vs. cycles without Tα1 4.10, p = 0.002): 4.41 vs. 4.10 p = 0.002 | Side effects of thymosin α1 (cancer patients): does not appear to result in any side effects | Nausea and vomiting WHO Gr. 4, number of patients ([2]; without Tα1 0): 0 | Nausea and vomiting WHO Grade 0, number of patients ([2]; without Tα1 4/53): 7/55 | Nausea and vomiting WHO Gr. 3, number of patients ([2]; without Tα1 11): 1 | Nausea and vomiting WHO Gr. 1, number of patients ([2]; without Tα1 19): 33 | Nausea and vomiting WHO Gr. 2, number of patients ([2]; without Tα1 19): 13
